According to patent US20060100264A1, “3,3'-Diindolylmethane immune activating compositions” (priority 2004, published 2006):

How the values were obtained:
[1] = system: DMBA-induced mammary tumors; settings: single oral dose prior to carcinogen, rats; cited from earlier work
IFNGR1 protein = settings: previous studies (ref 27), cited from earlier work
[2] = system: 4GAS-Luc reporter (four repeats of the consensus GAS element); experiment: 4GAS-Luc luciferase reporter in transiently transfected MCF-7 cells; format: cell-based, human; settings: DIM 50 μM, IFNγ concentration dependent, maximum
Procedure: (§1) In a further experiment to examine whether the inducing effects of DIM are at the transcriptional level, the effect of DIM on activities of two luciferase reporter constructs, OAS-Luc (12) and 4GAS-Luc (13) was examined. OAS-Luc contains the promoter and 5′-flanking region (−972) of p69-OAS and GAS-Luc contains four repeats of the consensus GAS element. MCF-7 cells transiently transfected with these reporter constructs were treated with IFNγ, DIM, or a combination of both for 24 h. […] IFNγ induced transcriptional activity of this reporter in a concentration dependent manner to a maximum of about 1.8 fold, which is less than the response of the endogenous gene of about 5.0 fold. In marked contrast to the maximum effects of combined treatments of the inducers on endogenous gene expression (nearly 12-fold increase compared to vehicle treated cells), the reporter gene construct responded with less than a 3-fold increase over the controls.
Thus, treatment with DIM (50 μM) by itself again produced a 2 to 3-fold increase in activity of this reporter. IFNγ treatments, however, produced a robust concentration dependent increase in reporter activity to approximately 40-fold induction compared to vehicle treated controls. […]

[3] = system: HLA-A, HLA-B, HLA-C, β-microtubulin, TAP1 and TAP2; experiment: RT-PCR of MHC-I components and transporters in MCF-7 cells; format: cell-based, human
Excerpt: RT-PCR was used to examine the expression of the four major components of human MHC-I, including HLA-A, HLA-B, HLA-C, and β-microtubulin, as well as two important associated transporters, TAP1 and TAP2. […] As expected, the expressions of these genes were increased 2-8 fold by treatment with IFNγ.

MHC-I complex = experiment: Flow cytometry of cell surface MHC-I expression (FITC-conjugated HLA-ABC antibody); format: cell-based, human
Procedure: Induced expression of the MHC-I complex is a well-established and important down-stream target of IFNγ-mediated signal transduction. To examine further the possible synergistic effects of DIM on a significant metabolic product of IFNγ signaling, we tested the effects of co-treatment with DIM on IFNγ induced expression of MHC-I complex in MCF-7 cells.
Flow cytometry analysis of cell surface MHC-I expression was conducted using FITC-conjugated HLA-ABC antibody. In an initial control experiment, cultured MCF-7 cells were pre-treated with 30 μM DIM for 48 hours and then with or without 10 ng/mL IFNγ for another 16 hours. […] In a subsequent experiment in which cells were treated with a range of IFNγ concentrations and analyzed with the anti-MHC-I antibody, a strong signal indicative of IFNγ-induced MHC-I expression was detectable at 0.1 ng/mL and appeared to plateau at 10 ng/mL. In cells treated with vehicle control only, MHC-I expression was not detected in greater than 99% of cells.
Exposure to DIM of cells treated with 10 ng/mL of IFNγ, about 95% of which expressed MHC-I, produced a strong time dependent increase in MFV from 76.04 to 131.41. […] As expected, addition of an IFNγ blocking antibody into the medium before the treatments abrogated the inducing effects of co-treatments of IFNγ and DIM on MHC-I expression, confirming the requirement of the cytokine for the observed effects.

[4] = system: OAS-Luc reporter (promoter and 5′-flanking region of p69-OAS); experiment: OAS-Luc luciferase reporter in transiently transfected MCF-7 cells; format: cell-based, human; settings: 24 h treatment
Procedure: as §1

GAS element = experiment: Electrophoretic gel mobility shift assay, STAT1 binding to GAS element; format: cell-based, human; settings: DIM pretreatment for various times, IFNγ 30 min
Procedure: An electrophoretic gel mobility shift assay was used to verify that the phosphorylated STAT1 was effectively activated to a dimer that could bind to the GAS element. The ^32P-labeled DNA probe containing a GAS sequence was incubated with nuclear extracts from cells pretreated with DIM for various times as indicated, and with IFNγ for 30 min. […] When samples were incubated with an antibody specific to STAT1, the band was super-shifted, confirming the identity of the protein binding to the labeled GAS probe.

MCF-7 cells [5] = experiment: Cell proliferation over a 4-day treatment period; format: cell-based, human
Procedure: Functional consequences of the synergistic effects of DIM and IFNγ on gene expression were examined at the level of proliferation rates. Cell proliferation was measured over a 4-day treatment period with treatments with DIM, IFNγ, or both substances, and compared to a DMSO control. With heat-treated serum, IFNγ alone reduced cell proliferation by as much as 70% compared to controls. DIM treatments reduced proliferation by as much as 60%. […] These effects were accompanied by morphological changes characteristic of apoptosis.

MCF-7 cells [6] = experiment: Flow cytometry of cell cycling (G1 phase); format: cell-based, human; settings: up to 3 days; control approximately 50% in G1
Excerpt: Flow cytometry was used to determine the effects of DIM and IFNγ on cell cycling. […] In control groups approximately 50% of the cells were in G1. Treatment with IFNγ alone caused a small progressive increase in G1 blocked cells of up to 10% above the DMSO control, after 3 days.

MHC-II = MHC-II expression in MCF-7 cells; format: cell-based, human
Excerpt: In an analogous further experiment, we observed no effect of DIM or IFNγ on MHC-II expression in the MCF-7 cells.

| Compound | Reduction of incidence and multiplicity of DMBA-induced mammary tumors [1] | IFNGR1 receptor expression increase (IFNGR1 protein; 24 hours of treatment with I3C) | Maximum level of IFNGR1 protein induction (IFNGR1 protein; I3C) | Time at which maximum IFNGR1 protein induction was reached (IFNGR1 protein; I3C) | Induction of 4GAS-Luc reporter activity compared to vehicle treated controls [2] | Expression levels of the six genes (MHC-I components, TAP1, TAP2) above vehicle/background [3] | Percentage of MHC-I positive cells (MHC-I complex; 0.1 ng/mL IFNγ, without or with 30 μM DIM pretreatment for 48 h) | MHC-I expression/cell (MFV) (MHC-I complex; 10 ng/mL IFNγ, without or with exposure to DIM) | Cells which expressed MHC-I (MHC-I complex; 10 ng/mL of IFNγ) | IFNγ concentration at which MHC-I signal appeared to plateau (MHC-I complex; MCF-7 cells) | IFNγ concentration at which induced MHC-I expression was detectable (MHC-I complex; MCF-7 cells) | Maximum induction of OAS-Luc reporter [4] | Band-shift of 32P-labeled GAS probe with nuclear extracts (GAS element) | Reduction of cell proliferation compared to controls (MCF-7 cells [5]; 4-day treatment, heat-treated serum) | Effect on proliferation of cells grown in unheated serum (MCF-7 cells [5]; unheated serum) | Increase in G1 blocked cells above the DMSO control (MCF-7 cells [6]) | Effect on MHC-II expression (MHC-II) |
| --- | --- | --- | --- | --- | --- | --- | --- | --- | --- | --- | --- | --- | --- | --- | --- | --- | --- |
| OCc1c[nH]c2ccccc12 [I3C, indole-3-carbinol] | 70-80% | about 3 fold | about 7 fold | about 48 hours | – | – | – | – | – | – | – | – | – | – | – | – | – |
| IFNγ: Type II IFN, interferon-γ or the immune interferon, a cytokine | – | – | – | – | approximately 40 fold | 2-8 fold | 8.11% | 76.04 | about 95% | 10 ng/mL | 0.1 ng/mL | about 1.8 fold | produced a band-shift | ≤ 70% | no significant effect | up to 10% | no effect |
